Measurements: US7595327B2, “Beta-sulfonamide hydroxamic acid inhibitors of tace/matrix metalloproteinase” (priority 2005, dated 2009)

Key:
[1] = biological target: T1, recombinant human MMP-7 (Homo sapiens, UniProt P09237); test: In-vitro fluorescence assay of MMP-7 activity; assay type: biochemical
T1 construct: Active, recombinant human MMP-7 was purchased from Calbiochem (catalog #444270; expressed in E. coli, 19 kDa); purchased Calbiochem 444270; host or cells: E. coli
T1 sequence (P09237 95-267): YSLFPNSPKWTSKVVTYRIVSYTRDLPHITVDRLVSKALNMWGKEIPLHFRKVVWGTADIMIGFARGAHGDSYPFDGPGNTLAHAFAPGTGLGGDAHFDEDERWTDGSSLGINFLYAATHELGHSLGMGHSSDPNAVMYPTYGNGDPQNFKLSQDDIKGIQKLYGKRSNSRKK
Protocol: The method was similar to that for the determination of MMP-1 activity, described above, with the following differences. Active, recombinant human MMP-7 was purchased from Calbiochem (catalog #444270; expressed in E. coli, 19 kDa). […] The concentration of the substrate stock was spectrophotometrically determined using the extinction coefficient at 410 nm of 7500 M^−1 cm^−1. The assay buffer (pH 7.4) consisted of 50 mM Hepes, 100 mM NaCl, 5 mM CaCI2, and 0.005% Brij-35. […] The plates were then incubated at room temperature for 30 minutes. The enzymatic reactions were initiated by adding substrate to a final concentration of 15 μM and were mixed by pipelting up and down. The final DMSO concentration in the assay was 10% and the final, total assay volume was 200 μl. […]

[2] = biological target: MMP-13 (Homo sapiens, UniProt P45452); test: In-vitro fluorescence assay of MMP-13 activity; assay type: biochemical
Protocol: See Knight, C. […] […].
The method was essentially the same as for the determination of MMP-1 activity, described above, except that the final concentration of purified MMP in the assay was 0.5 nM, prepared by diluting with the assay buffer.

[3] = biological target: T2, recombinant human MMP-9 (Homo sapiens, UniProt P14780); test: In-vitro fluorescence assay of MMP-9 activity; assay type: biochemical
T2 construct: purchased Calbiochem PF024
T2 sequence (P14780 107-707 limits assumed): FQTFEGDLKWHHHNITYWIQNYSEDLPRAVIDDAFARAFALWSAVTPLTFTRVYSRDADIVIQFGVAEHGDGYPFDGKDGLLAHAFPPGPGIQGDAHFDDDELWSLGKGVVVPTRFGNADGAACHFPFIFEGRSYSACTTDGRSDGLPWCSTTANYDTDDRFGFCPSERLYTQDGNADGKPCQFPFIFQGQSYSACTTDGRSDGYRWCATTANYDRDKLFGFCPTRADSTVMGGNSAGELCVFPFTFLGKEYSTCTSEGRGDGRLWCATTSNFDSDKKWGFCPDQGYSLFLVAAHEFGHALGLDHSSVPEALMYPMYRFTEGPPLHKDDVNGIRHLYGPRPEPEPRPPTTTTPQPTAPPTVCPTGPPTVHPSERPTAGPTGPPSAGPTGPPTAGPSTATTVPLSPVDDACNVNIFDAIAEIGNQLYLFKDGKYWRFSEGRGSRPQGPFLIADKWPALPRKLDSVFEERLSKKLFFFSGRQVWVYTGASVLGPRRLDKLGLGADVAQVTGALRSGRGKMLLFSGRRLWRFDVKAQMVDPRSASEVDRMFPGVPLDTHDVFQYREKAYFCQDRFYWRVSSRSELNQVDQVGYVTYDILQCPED
Protocol: The method was similar to that for the determination of MMP-1 activity, described above, with the following differences. Active, recombinant human MMP-7 was purchased from Calbiochem (catalog #444270; expressed in E. coli, 19 kDa). […] The concentration of the substrate stock was spectrophotometrically determined using the extinction coefficient at 410 nm of 7500 M^−1 cm^−1. The assay buffer (pH 7.4) consisted of 50 mM Hepes, 100 mM NaCl, 5 mM CaCI2, and 0.005% Brij-35. […] The plates were then incubated at room temperature for 30 minutes. The enzymatic reactions were initiated by adding substrate to a final concentration of 15 μM and were mixed by pipelting up and down. The final DMSO concentration in the assay was 10% and the final, total assay volume was 200 μl. […].
The method was essentially the same as for the determination of MMP-7 activity, described above, except that the source of enzyme in the assay was recombinant human MMP-9 (83 kDa) was purchased from Calbiochem (catalog #PF024), the final enzyme concentration was 0.5-1.0 nM, and the final substrate concentration was 20 μM.

[4] = tested on: LPS-induced TNF-α secretion in human whole blood; test: Human whole blood assay for LPS-induced TNF-α secretion; assay type: cell-based; details: Homo sapiens, LPS 100 ng/ml, read-out: TNF Secretion HWB IC50
In short: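 Fresh blood from healthy volunteers pre-incubated 1 h at 37° C with compound (final DMSO <0.2%), then stimulated with 100 ng/ml LPS for 4 h or overnight at 37° C with rotation. Supernatant TNF-α measured by ELISA; percent inhibition and IC50 derived by curve fitting.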

[5] = biological target: recombinant human MMP-8 (Homo sapiens, UniProt P22894); test: In-vitro fluorescence assay of MMP-8 activity
Chain of recombinant human MMP-8 (P22894 101-467): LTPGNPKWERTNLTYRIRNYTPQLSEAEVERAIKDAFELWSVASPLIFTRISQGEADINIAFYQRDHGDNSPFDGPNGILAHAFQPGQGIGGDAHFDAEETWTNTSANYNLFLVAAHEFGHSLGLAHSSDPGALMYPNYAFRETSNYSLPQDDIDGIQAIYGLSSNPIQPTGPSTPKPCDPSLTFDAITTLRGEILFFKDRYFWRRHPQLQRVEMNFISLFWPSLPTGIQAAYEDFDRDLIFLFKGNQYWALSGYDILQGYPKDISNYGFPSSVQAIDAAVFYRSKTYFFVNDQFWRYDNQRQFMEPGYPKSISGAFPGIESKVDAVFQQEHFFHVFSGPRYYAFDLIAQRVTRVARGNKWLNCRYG

[6] = biological target: T3, recombinant human MMP-2 (Homo sapiens, UniProt P08253); test: In-vitro fluorescence assay of MMP-2 activity; assay type: biochemical
T3 sequence (P08253 110-660): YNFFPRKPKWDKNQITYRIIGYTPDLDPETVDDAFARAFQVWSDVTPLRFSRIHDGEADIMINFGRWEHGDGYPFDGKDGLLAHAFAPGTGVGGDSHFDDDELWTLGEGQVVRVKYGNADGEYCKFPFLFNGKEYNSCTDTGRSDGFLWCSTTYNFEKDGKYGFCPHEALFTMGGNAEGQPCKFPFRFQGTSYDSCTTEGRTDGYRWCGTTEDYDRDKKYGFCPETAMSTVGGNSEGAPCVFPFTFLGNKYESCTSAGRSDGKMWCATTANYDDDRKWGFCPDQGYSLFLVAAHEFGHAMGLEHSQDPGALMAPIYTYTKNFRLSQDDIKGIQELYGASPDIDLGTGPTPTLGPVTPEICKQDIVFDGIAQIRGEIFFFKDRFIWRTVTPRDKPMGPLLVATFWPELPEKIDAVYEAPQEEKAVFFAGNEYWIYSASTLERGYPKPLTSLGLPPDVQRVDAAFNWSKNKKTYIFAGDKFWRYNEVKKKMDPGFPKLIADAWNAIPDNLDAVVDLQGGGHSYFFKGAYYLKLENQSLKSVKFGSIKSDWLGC
Protocol: (§1) A continuous assay was used in which the substrate is a synthetic peptide containing a fluorescent group (7-methoxycoumarin; Mca) that is quenched by energy transfer to a 2,4-dinitrophenyl group. […] The substrate used was Mca-PQGL-(3-[2,4-dinitrophenyl]-L-2,3-diaminopropionyl)-AR-OH (denoted as Wammp-5, custom synthesized by AnaSpec, Inc.). The assay buffer consisted of 50 mM Hepes (pH 7.4), 100 mM NaCl, 5 mM CaCI2, and 0.005% Brij-35. Each well of black polystyrene 96-well plates contained a 200 μL reaction mixture consisting of assay buffer, purified MMP (final concentration of 25 ng/ml, prepared by diluting with the assay buffer), and varied concentrations of inhibitor (prepared by serially diluting a given inhibitor in DMSO in 96-well polypropylene plate). […] The enzymatic reactions were initiated by adding the substrate to a final concentration of 20 μM, and mixing 10 times with a pipette. The final DMSO concentration in the assay was 6.0%.
(§2) Plots of the inhibitor concentration vs. the percent inhibition were fit to the following equation: y=(a−d)/[1+(x/c)^b]+d, a general sigmoidal curve with Hill slope, a to d. x is the inhibitor concentration under test. y is the percent inhibition. a is the limiting response as x approaches zero. As x increases without bound, y tends toward its limit d. c is the inflection point (IC50) for the curve. That is, y is halfway between the lower and upper asymptotes when x=c. b is the slope factor or Hill coefficient.

[7] = biological target: T4, recombinant human catalytic domain of MMP-1 (Homo sapiens, UniProt P03956); test: In-vitro fluorescence assay of MMP-1 activity; assay type: biochemical
T4 construct: The source of enzyme in the assay was the recombinant human catalytic domain of MMP-1
T4 sequence (P03956 100-269 limits assumed): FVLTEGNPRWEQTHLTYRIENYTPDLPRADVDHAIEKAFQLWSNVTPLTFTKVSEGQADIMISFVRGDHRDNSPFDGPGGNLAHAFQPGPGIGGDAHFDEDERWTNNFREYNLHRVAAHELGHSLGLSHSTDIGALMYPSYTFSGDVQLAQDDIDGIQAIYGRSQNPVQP
Protocol: as §1, §2

[8] = biological target: T5, recombinant human catalytic domain of MMP-14 (Homo sapiens, UniProt P50281); test: In-vitro fluorescence assay of MMP-14 activity; assay type: biochemical
T5 construct: 20 kDa; purchased Chemicon International, Inc. CC1041
Protocol: The results were analyzed as described for MMP-13 activity, above.

Structure (SMILES)	IC50 [1]	IC50 [2]	IC50 [3]	IC50 [4]	IC50 [5]	IC50 [6]	IC50 [7]	IC50 [8]
Cc1cc(COc2ccc(S(=O)(=O)N[C@@H]3CN(C(=O)NC(C)(C)C)CC[C@@H]3C(=O)NO)cc2)c2ccccc2n1 [Example 35, 3-[4-(2-Methyl-quinolin4-ylmethoxy)-benzenesulfonylamino]-piperidine-1,4-dicarboxylic acid 1-tert-butylamide 4-hydroxyamide]	4.62 µM	> 16.7 µM	> 16.7 µM	0.8 µM	> 16.7 µM	> 16.7 µM	> 16.7 µM	> 16.7 µM
Cc1cc(COc2ccc(S(=O)(=O)N[C@H]3COC[C@H]3C(=O)NO)cc2)c2ccccc2n1 (stereo in doubt) [Example 26, (3S,4R)-4-[4-(2-Methyl-quinolin-4-ylmethoxy)-benzenesulfonylamino]-tetrahydro-furan-3-carboxylic acid hydroxyamide]	0.827 µM	> 16.7 µM	> 16.7 µM	0.2 µM	> 16.7 µM	> 16.7 µM	> 16.7 µM	> 16.7 µM
CCNC(=O)N1C[C@H](C(=O)NO)[C@H](NS(=O)(=O)c2ccc(OCc3cc(C)nc4ccccc34)cc2)C1 (relative stereo) [Example 23, cis-1-Ethyl-N-hydroxy-4-[({4-[(2-methylquinolin-4-yl)methoxy]phenyl}sulfonyl)amino]pyrrolidine-1,3-dicarboxamide]	1.17 µM	> 16.7 µM	> 16.7 µM	0.28 µM	> 16.7 µM	> 16.7 µM	> 16.7 µM	> 16.7 µM
Cc1cc(COc2ccc(S(=O)(=O)N[C@@H]3CN(S(C)(=O)=O)C[C@@H]3C(=O)NO)cc2)c2ccccc2n1 (relative stereo) [Example 17, cis-N-Hydroxy-4-[({4-[(2-methylquinolin-4-yl)methoxy]phenyl}sulfonyl)amino]-1-(methylsulfonyl) pyrrolidine-3-carboxamide]	0.668 µM	> 10 µM	> 16.7 µM	0.34 µM	> 16.7 µM	> 10 µM	> 16.7 µM	> 16.7 µM
Cc1cc(COc2ccc(S(=O)(=O)N[C@@H]3CN(C=O)C[C@@H]3C(=O)NO)cc2)c2ccccc2n1 (relative stereo) [Example 20, cis-1-Formyl-N-hydroxy-4-[({4-[(2-methylquinolin-4-yl)methoxy]phenyl}sulfonyl)amino]pyrrolidine-3-carboxamide]	0.812 µM	10.2 µM	> 16.7 µM	0.12 µM	> 16.7 µM	> 10 µM	> 16.7 µM	> 16.7 µM
Cc1cc(COc2ccc(S(=O)(=O)N[C@@H]3CCC[C@@H]3C(=O)NO)cc2)c2ccccc2n1 [Example 13, (1S,2R)-N-Hydroxy-2-[({4-[(2-methylquinolin-4-yl)methoxy]phenyl}sulfonyl)amino]cyclopentanecarboxamide]	0.444 µM	> 10 µM	> 16.7 µM	0.25 µM	> 16.7 µM	> 10 µM	> 16.7 µM	> 16.7 µM
